Reference: patent US20070299047A1, “Combination of Organic Compounds” (priority 2004, published 2007)

Columns and labels:
[1] = test system: Chrna2 (cholinergic receptor, neuronal nicotinic, alpha polypeptide 2); assay: Chrna2 gene expression in the duodenum of treated ob/ob mice; assay type: in vivo; details: p<0.01
ob/ob mice = assay: Food intake in ob/ob mice after seven days of treatment; assay type: in vivo; details: 5 mg/kg/day

For Cc1oc(-c2ccc(C(F)(F)F)cc2)nc1COc1ccc(S(=O)(=O)N2c3ccccc3C[C@@H]2C(=O)O)cc1 [(R)-1-{4-[5-methyl-2-(4-trifluoromethyl-phenyl)-oxazol-4-ylmethoxy]-benzenesulfonyl}-2,3-dihydro-1H-indole-2-carboxylic acid], the “Chrna2 expression in the duodenum increased by” value ([1]; after 1 day of treatment) was 15 fold, the “Chrna2 expression in the duodenum increased by” value ([1]; after 2 days of treatment) was 11 fold and the “Chrna2 expression in the duodenum increased by” value ([1]; after 7 days of treatment) was roughly 140 fold. The “daily food intake down by” value (ob/ob mice; by day 7, p<0.01) was 50% and the “food intake compared to vehicle” value (ob/ob mice; starting on day 3) was “significantly lowered food intake”.
